Source: a melting point compilation (Tetko et al.; mined from patent text by program, amines drawn as free bases though some values may be those of a salt)

Row | SMILES | melting point [°C]
1 | CCCCCCCCCCCCSc1ccc2c(c1)C(=O)c1c(c(Oc3ccccc3)c3ccccc3c1Oc1ccccc1)C2=O | 165 to 168
2 | CN1CC(CCCl)Oc2ccccc2C1=O (stereo not drawn) | 97 to 107
3 | Oc1ccc(N2CCN(c3ccc(C(F)(F)F)cn3)CC2)cc1 | 178 to 179
4 | O=C1CC(Nc2ccccc2)C(=O)N1c1ccccc1 (stereo not drawn) | 211 to 214
5 | CCCc1c(O)c(F)cc(C(C)=O)c1O | 129 to 130
6 | OC(c1ccccc1)(c1ccc(C(F)(F)F)cc1)c1nccn1Cc1ccccc1 (stereo not drawn) | 167 to 169
7 | COC(=O)CCCCCNC(=O)C(COS(C)(=O)=O)NS(=O)(=O)c1ccc(Cl)cc1 (racemic) | 81 to 84
8 | Nc1ccccc1SCC1=NOCN1 | 108
9 | O=c1[nH]c(=O)c2c3c(cc([N+](=O)[O-])c2[nH]1)OCO3 | 285
10 | CC(NCCN(CCNC(C)=C1C(=O)CC(C)(C)CC1=O)C(=O)CCC(=O)O)=C1C(=O)CC(C)(C)CC1=O | 65 to 68
11 | CN(C(=O)OC(C)(C)C)c1cc(Oc2ccc(C34CC5CC(CC(C5)C3)C4)cc2)ccc1N | 85 to 90
12 | O=C(NNS(=O)(=O)c1ccccc1)c1ccc(F)cc1Cl | 147 to 149
13 | CCCCNc1c(C(=O)O)cnc2[nH]ncc12 | 225
14 | COC(=O)C(=Cc1c[nH]c2cc(C)ccc12)[N+](=O)[O-] | 167 to 169
15 | c1ccc(CCC2CCN(Cc3nc4ccccc4[nH]3)CC2)cc1 | 170
16 | COc1cc2c(c(O)c1C)COC(C)C2 (stereo not drawn) | 143 to 145
17 | COC(=O)c1ccc(S(C)(=O)=O)c(COC(C)=O)c1Cl | 165 to 168
18 | C#CCNC(=C[N+](=O)[O-])NCCSCc1csc(NC(=N)N)n1 | 82 to 90

Row | SMILES | melting point [°C]
19 | CCOC(=O)c1ncn2c1CN(C)C(=O)c1c(C)cccc1-2 | 146 to 147
20 | O=P(c1ccccc1)(c1ccccc1)C(F)F | 93 to 94
21 | COC(=O)[C@@H]1C[C@@H](OS(C)(=O)=O)CN1C(=O)OC(C)(C)C | 86 to 87
22 | O=C(Nc1cn(C2CCCCO2)nc1C(=O)NCCNc1ccccc1)c1ccccn1 (stereo not drawn) | 182 to 183
23 | O=C(CCCCl)NC1c2ccccc2CS(=O)(=O)c2ccccc21 (stereo not drawn) | 215 to 227
24 | CN1Cc2c(C#N)ncn2-c2ccsc2C1=O | 206 to 208
25 | O=C1C(=O)c2ccccc2C2=C1SCC1(CCN(C(=O)c3ccoc3)CC1)O2 | 234 to 235
26 | CCCCCCCCC(CC(=O)Nc1ccccc1)CC(C)[N+](=O)[O-] (stereo not drawn) | 71 to 72
27 | CC1CCC(C(C)C)C(OC(=O)C(O)c2ccccc2)C1 (single isomer, unassigned; (-)) | 50 to 51
28 | NC(=O)c1c(F)cc(NC2CCNCC2)cc1F | 166 to 168
29 | CCOC(=O)C(=CC=C(C#N)c1ccccc1)N(C)C | 67
30 | NCc1nc(-c2ncn3c2[C@@H]2CCN2C(=O)c2ccccc2-3)no1 | 211 to 214
31 | CN1C(=O)CON(C(=O)OCc2ccccc2)C1c1ccccc1 (stereo not drawn) | 82 to 83
32 | O=C(c1ccc(Cl)cc1)P1(=O)Oc2ccccc2-c2ccccc21 (stereo not drawn) | 125 to 131
33 | CCOC(=O)C=C(C)C=CC=O | 49 to 50
34 | Cn1ncc(-c2ccccn2)c1S(N)(=O)=O | 113 to 114
35 | CCOC=C(C(=O)OCC)C(=O)c1ccc(I)cc1Cl | 237 to 240

Second part, the compound after the results:

Row | melting point [°C] | SMILES
36 | 167 to 168 | Cc1cccc2c1oc1c(NC(=O)c3ccccn3)n(C)nc12
37 | 140 to 142 | CC(C)Oc1cc(COc2cc(CCC(=O)O)n(-c3ccccc3)n2)cc(COc2ncc(C(F)(F)F)cc2Cl)c1
38 | 178 to 180 | COC(=O)c1ccccc1S(=O)(=O)NC(=O)Nc1nc(COc2ccccc2)cc(OC)n1
39 | 145 to 148 | CCc1nc2ccccc2c(N)c1C(C)=O
40 | 132 to 134 | COC(=O)/C(=N/NC(N)=O)c1ccc(OCCOc2ccc3ccccc3c2)cc1
41 | 92 to 93 | COc1ccc(-c2nn(CC(C)C)c3c(F)cccc23)c(OC)c1
42 | 96 to 97 | COC(=O)c1cncc(OCc2cccc(OCc3nc(-c4ccccc4)oc3C)c2)c1
43 | 213 to 214 | COc1ccc(-c2c(C(=O)O)c(CSc3nccn3C)nc3cc(OC)c(OC)cc23)cc1OC
44 | 126 to 127 | COc1c(Cl)cc(C(C)(C)N(CC(C)=O)C(=O)Cc2ccccc2)cc1Cl
45 | 122 to 124 | Cc1cc2c(Cl)nnc(Cl)c2n1Cc1ccccc1
46 | 104 to 105 | COc1ccccc1-c1nc(CC(=O)O)cs1
47 | 107 to 109 | O=C(O)c1ccc(CO/N=C/c2cn(Cc3ccccc3)c3ccccc23)cc1Br
48 | 123 to 124 | Cc1cc(C)c(NC(=O)N(Cc2ccc3c(c2)-c2ccccc2-3)C2CCCCCC2)c(C)c1
49 | 165 to 167 | Cc1ccc(S(=O)(=O)n2ccnc2C(O)(c2ccccc2)c2ccccc2Cl)cc1 (stereo not drawn)
50 | 101 to 103 | COC1(OC)C(=O)N(C)c2ccc(I)cc21
51 | 97 to 100 | CCCOc1cc2c(cc1/C=C/c1ccc(C(=O)OCC)cc1)C(C)(C)CCC2(C)C
52 | 204 to 206 | COC1(OC)C=Cc2cc(Cc3cnc(N)nc3N)cc(OCC3CC3)c2O1
53 | 113 to 115 | COC(=O)C1CCCN(COS(C)(=O)=O)c2c1cc(O)c1ccccc21 (stereo not drawn)
54 | 80 to 81 | COc1cc(OC)nc(Oc2cccc(Cl)c2C(=O)ON(C)C)n1

Row | melting point [°C] | SMILES
55 | 138 to 139 | COc1ccc(OCCOc2ccc(C(=O)C(=O)O)cc2)cc1
56 | 204 to 206 | Clc1ccc2nc(CN3CCc4ccccc4C3)[nH]c2c1
57 | 204 to 205 | Cc1c(NC(=O)c2ccc(-c3ccc(F)cc3)cc2)ccc2cc(CN3CCCC3C3CCCCC3)cnc12 (stereo not drawn)
58 | 184 to 188 | Cc1ccc2cccc(OCc3cccc([N+](=O)[O-])c3C)c2n1
59 | 124 to 126 | CCOC(=O)CCc1cc(C(=O)CCCC(=O)O)ccc1OC
60 | 138 to 140 | COc1ccc(/C=C(\C#N)c2ccc(O)cc2)cc1OC1CCCC1
61 | 111 to 112 | Nc1ncnc2c1c(-c1ccc(Oc3ccccc3)cc1)cn2CCN1C(=O)c2ccccc2C1=O
62 | 138 to 140 | COc1cc(N2C(=O)N(C)CC2O)c(F)cc1Cl (stereo not drawn)
63 | 130 to 132 | CC(=O)OC(C)(C)C(=O)Nc1ccc(Sc2ccc(N)cc2)cc1Cl
64 | 164 to 166 | CCN(CC)CCCn1[nH]c(C)c2c(=O)nc(-c3ccncc3)nc1-2
65 | 87 to 90 | COc1ccc2c(c1)c(C)c(-c1ccc(O)cc1)n2Cc1ccc(OCCN2CCCCC2)cc1
66 | 62 | CCOC(=O)CCCCCn1c(C(=O)O)cc2ccccc21
67 | 123 to 124 | OCCN1CCN(Cc2ccc(O)c3ncccc23)CC1
68 | 147 to 148 | COc1cc2c3ccc(OC)c(OC)c3n(Cc3ccc(C#N)cc3)c2cc1OC
69 | 254 to 255 | O=C(Nc1cccnn1)N1CCN(c2cc(-c3ccc(F)cc3)ncn2)CC1
70 | 158 to 165 | CN1C(=O)CC[C@]2(C)c3ccc(-c4cccc(Cl)c4)cc3CC[C@@H]12
71 | 127 to 129 | CCCn1ncnc1COc1nc2c(cc1C(C)(C)C)nnn2-c1ccccc1F
72 | 251 to 254 | Nc1cc(O)cc2cc(-c3ccc(O)cc3)oc12
73 | 208 to 209 | Cn1cccc1-c1cc2nccnc2[nH]1
